From ChEMBL document CHEMBL1130242, “3 Beta-(4-ethyl-3-iodophenyl)nortropane-2 beta-carboxylic acid methyl ester as a high-affinity selective ligand for the serotonin transporter” (J Med Chem, 1997)

Key:
[1] = molecular target: Monoamine transporters; Norepininephrine & dopamine (Rattus norvegicus) (UniProt P23977+Q9WTR4); assay: Selectivity ratio is IC50 value of NET to that of DAT; type: protein assay
[2] = molecular target: Monoamine transporters; serotonin & dopamine (Rattus norvegicus) (UniProt P31652+P23977); assay: Selectivity ratio is IC50 value of 5-HTT to that of DAT; type: protein assay
Monoamine transporters; serotonin & dopamine (Rattus norvegicus), sequence (P23977 whole entry, looked up): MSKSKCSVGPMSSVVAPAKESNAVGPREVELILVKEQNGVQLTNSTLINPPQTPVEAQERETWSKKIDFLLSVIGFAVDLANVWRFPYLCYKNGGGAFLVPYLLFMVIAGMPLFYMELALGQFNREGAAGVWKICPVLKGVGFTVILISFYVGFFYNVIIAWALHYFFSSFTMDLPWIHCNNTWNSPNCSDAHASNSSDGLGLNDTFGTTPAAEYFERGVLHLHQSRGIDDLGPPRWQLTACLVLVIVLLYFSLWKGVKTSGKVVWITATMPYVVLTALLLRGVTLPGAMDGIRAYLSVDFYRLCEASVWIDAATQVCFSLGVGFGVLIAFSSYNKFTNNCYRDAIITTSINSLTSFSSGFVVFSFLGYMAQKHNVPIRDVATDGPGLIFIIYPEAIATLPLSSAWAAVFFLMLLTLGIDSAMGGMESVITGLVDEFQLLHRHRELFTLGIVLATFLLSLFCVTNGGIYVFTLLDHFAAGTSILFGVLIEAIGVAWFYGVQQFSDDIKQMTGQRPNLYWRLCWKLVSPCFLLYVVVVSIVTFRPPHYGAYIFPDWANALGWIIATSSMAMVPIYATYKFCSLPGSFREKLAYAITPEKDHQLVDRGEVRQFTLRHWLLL
Monoamine transporters; serotonin & dopamine (Rattus norvegicus), sequence (P31652 whole entry, looked up): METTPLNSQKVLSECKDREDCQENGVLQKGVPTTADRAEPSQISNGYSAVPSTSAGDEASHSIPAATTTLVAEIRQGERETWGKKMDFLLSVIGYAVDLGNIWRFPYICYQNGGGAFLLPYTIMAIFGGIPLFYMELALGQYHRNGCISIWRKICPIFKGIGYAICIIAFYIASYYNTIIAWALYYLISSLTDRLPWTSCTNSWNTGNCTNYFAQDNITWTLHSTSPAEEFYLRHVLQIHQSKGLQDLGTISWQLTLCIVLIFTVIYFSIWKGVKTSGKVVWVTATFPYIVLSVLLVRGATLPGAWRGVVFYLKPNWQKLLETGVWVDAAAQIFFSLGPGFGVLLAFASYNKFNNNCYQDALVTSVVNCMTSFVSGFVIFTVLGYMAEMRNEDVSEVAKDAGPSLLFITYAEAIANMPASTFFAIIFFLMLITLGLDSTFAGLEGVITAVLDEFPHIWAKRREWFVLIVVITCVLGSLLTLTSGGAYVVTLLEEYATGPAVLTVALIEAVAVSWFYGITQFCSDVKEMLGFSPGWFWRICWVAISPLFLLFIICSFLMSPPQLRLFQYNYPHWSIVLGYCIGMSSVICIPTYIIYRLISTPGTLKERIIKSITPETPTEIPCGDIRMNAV

[3] = molecular target: Sodium-dependent serotonin transporter (Rattus norvegicus, UniProt P31652); assay: In vitro inhibitory activity against radioligand [3H]paroxetine binding to serotonin transporter (5-HTT) in rat midbrain tissue; type: tissue-based
Sodium-dependent serotonin transporter, sequence (P31652 whole entry): as the sequence (P31652 whole entry, looked up) above

[4] = molecular target: Norepinephrine transporter (Rattus norvegicus, UniProt Q9WTR4); assay: In vitro inhibitory activity against radioligand [3H]-[…] binding to norepinephrine transporter (NET) in rat cortical tissue
Norepinephrine transporter, sequence (Q9WTR4 whole entry): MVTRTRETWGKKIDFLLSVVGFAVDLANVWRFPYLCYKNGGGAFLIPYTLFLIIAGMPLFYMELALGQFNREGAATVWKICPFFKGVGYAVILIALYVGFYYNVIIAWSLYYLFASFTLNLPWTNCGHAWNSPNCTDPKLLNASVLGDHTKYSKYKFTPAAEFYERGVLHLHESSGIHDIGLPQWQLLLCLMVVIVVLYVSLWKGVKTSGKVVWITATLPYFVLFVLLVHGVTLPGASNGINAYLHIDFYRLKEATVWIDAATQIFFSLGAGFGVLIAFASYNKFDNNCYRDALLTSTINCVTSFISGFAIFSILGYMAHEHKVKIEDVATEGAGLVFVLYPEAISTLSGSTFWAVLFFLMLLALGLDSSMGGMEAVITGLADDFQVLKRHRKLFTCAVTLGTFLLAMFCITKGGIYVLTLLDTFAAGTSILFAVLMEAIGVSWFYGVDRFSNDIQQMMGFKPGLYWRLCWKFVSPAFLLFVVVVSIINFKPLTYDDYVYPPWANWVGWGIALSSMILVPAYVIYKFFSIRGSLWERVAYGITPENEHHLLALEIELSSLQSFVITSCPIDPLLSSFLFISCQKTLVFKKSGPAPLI

[5] = molecular target: Sodium-dependent dopamine transporter (Rattus norvegicus, UniProt P23977); assay: In vitro inhibitory activity against radioligand [3H]-[…] binding to dopamine transporter (DAT) in rat striatal tissue; type: tissue-based, Striatum
Sodium-dependent dopamine transporter, sequence (P23977 whole entry): as the sequence (P23977 whole entry, looked up) above

`COC(=O)C1C(c2cccc(I)c2)CC2CC[C@H]1N2C` (some centres undefined) gave a Ratio [1] of 61, a Ratio [2] of 1.5 and an IC50 [3] of 0.0388 µM. The IC50 [4] was 1.59 µM and the IC50 [5] was 0.026 µM.
`CCc1ccc(C2CC3CC[C@H](C2C(=O)OC)N3C)cc1` (some centres undefined) showed a Ratio [1] of 71, a Ratio [2] of 0.52 and an IC50 [4] of 0.039 µM.
For `CCc1ccc(C2CC3CC[C@@H](N3)C2C(=O)OC)cc1I` (some centres undefined), the Ratio [1] was 40, the Ratio [2] was 87 and the IC50 [4] was 0.148 µM. For the same compound, the IC50 [5] was 0.329 µM.
Work on `CCc1ccc(C2CC3CC[C@@H](N3)C2C(=O)OC)cc1` (some centres undefined) yielded a Ratio [1] of 2.5 and a Ratio [2] of 0.2.
For `COC(=O)C1C(c2ccc(Cl)cc2)CC2CC[C@H]1N2` (some centres undefined), the Ratio [1] was 7, the Ratio [2] was 9 and the IC50 [3] was 0.00545 µM. For the same compound, the IC50 [4] was 0.00413 µM and the IC50 [5] was 0.00062 µM.
